Reference: ChEMBL document CHEMBL5634205, “Pyrazolopyridine-based kinase inhibitors for anti-cancer targeted therapy” (RSC Med Chem, 2024)

Biological target: T1, Tyrosine-protein kinase receptor TYRO3 (Homo sapiens, UniProt Q06418)
T1 sequence (Q06418 whole entry): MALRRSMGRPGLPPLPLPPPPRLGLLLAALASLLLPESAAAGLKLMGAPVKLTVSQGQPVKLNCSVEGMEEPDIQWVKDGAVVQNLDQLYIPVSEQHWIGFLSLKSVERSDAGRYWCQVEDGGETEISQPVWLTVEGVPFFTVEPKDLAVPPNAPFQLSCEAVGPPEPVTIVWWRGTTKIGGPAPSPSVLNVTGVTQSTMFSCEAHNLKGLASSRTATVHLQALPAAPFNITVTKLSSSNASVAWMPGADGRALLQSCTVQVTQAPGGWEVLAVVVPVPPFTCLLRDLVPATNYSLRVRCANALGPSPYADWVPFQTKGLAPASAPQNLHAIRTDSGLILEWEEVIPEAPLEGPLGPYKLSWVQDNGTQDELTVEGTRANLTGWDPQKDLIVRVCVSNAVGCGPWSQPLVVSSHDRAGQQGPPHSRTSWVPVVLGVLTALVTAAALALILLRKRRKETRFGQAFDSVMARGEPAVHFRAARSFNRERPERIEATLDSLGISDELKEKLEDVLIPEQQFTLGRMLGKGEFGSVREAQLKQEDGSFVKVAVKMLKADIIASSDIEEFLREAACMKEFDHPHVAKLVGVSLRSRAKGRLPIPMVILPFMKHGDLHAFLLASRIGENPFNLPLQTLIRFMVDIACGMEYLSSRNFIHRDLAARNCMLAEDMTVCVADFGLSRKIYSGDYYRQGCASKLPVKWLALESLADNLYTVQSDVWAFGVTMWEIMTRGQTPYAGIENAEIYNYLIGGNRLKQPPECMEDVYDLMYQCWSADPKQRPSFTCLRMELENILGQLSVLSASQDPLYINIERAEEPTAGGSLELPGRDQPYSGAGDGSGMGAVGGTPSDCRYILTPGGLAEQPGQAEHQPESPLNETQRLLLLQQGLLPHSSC
Experiment: Inhibition of SKY (unknown origin)

Row | IC50 | SMILES
1 | 3.2 nM | CN1C(=O)CCc2cc(NC(=O)c3n[nH]c4ccccc34)ccc21
2 | 1.2 nM | O=C(O)c1cccc(C(=O)Nc2n[nH]c3ncc(-c4ccc(F)cc4)cc23)c1
